According to patent publication US20100267561A1, “HERBICIDAL PYRIDAZINONE DERIVATIVES” (priority 2007, published 2010):

Assays:
Type in all cases: in vivo
[1] = system: pigweed (Amaranthus retroflexus); assay: Test B pre-/postemergence plant response
Procedure, shortened: (§1)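 Visual scoring from 0 (no effect) to 100 (complete control) against untreated controls was done 13 to 15 days after greenhouse treatment. Chemicals were formulated in a surfactant-containing non-phytotoxic solvent and applied to soil preemergence or to 1- to 4-leaf (2-18 cm) plants postemergence.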

soybean (Glycine max) = assay: Test B pre-/postemergence plant response
Procedure, shortened: as §1

[2] = system: johnsongrass (Sorghum halepense); assay: Test B pre-/postemergence plant response
Procedure, shortened: as §1

[3] = system: downy bromegrass (Bromus tectorum); assay: Test B pre-/postemergence plant response
Procedure, shortened: as §1

[4] = system: goosegrass (Eleusine indica); assay: Test B pre-/postemergence plant response
Procedure, shortened: as §1

[5] = system: common (oilseed) sunflower (Helianthus annuus); assay: Test B pre-/postemergence plant response; details: Preemergence
Procedure, shortened: as §1

[6] = system: velvetleaf (Abutilon theophrasti); assay: Test B pre-/postemergence plant response
Procedure, shortened: as §1

[7] = system: bermudagrass (Cynodon dactylon); assay: Test B pre-/postemergence plant response
Procedure, shortened: as §1

[8] = system: blackgrass (Alopecurus myosuroides); assay: Test B pre-/postemergence plant response
Procedure, shortened: as §1

[9] = system: giant foxtail (Setaria faberii); assay: Test B pre-/postemergence plant response
Procedure, shortened: as §1

[10] = system: wheat (Triticum aestivum); assay: Test B pre-/postemergence plant response
Procedure, shortened: as §1

[11] = system: giant foxtail (Setaria faberi); assay: Test A pre-/postemergence plant response
Procedure, shortened: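 Ratings run 0–100 (100 = complete control), assigned visually against untreated controls roughly 10 days after treatment in a greenhouse. Compounds, formulated in non-phytotoxic solvent containing surfactant, were applied as a soil-directed preemergence spray and concurrently postemergence to one- to two-leaf plants 2–10 cm tall.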

[12] = Postemergence, 31 g ai/ha, scale 0 to 100, 0 no effect, 100 complete control
[13] = Postemergence, 62 g ai/ha, scale 0 to 100
[14] = Postemergence, 125 g ai/ha, scale 0 to 100
[15] = Postemergence, 250 g ai/ha, scale 0 to 100
[16] = Preemergence, 31 g ai/ha, 0 to 100 scale, 0 no effect, 100 complete control
[17] = Preemergence, 62 g ai/ha, scale 0 to 100
[18] = Preemergence, 125 g ai/ha, scale 0 to 100
[19] = Preemergence, 250 g ai/ha, scale 0 to 100
[20] = 250 g ai/ha, preemergence, 0-100 scale

In the case of “4-[3-(4-chlorophenyl)-5-methyl-1H-pyrazol-3-yl]-5-hydroxy-2-methyl-3(2H)-pyridazinone [Compound 3]”, the “Plant response rating, Pigweed” value [1, 12] was 0, the “Plant response rating, Pigweed” value [1, 13] was 0 and the “Plant response rating, Pigweed” value [1, 14] was 10. For the same substance, the “Plant response rating, Pigweed” value [1, 15] was 25, the “Plant response rating, Pigweed” value [1, 16] was 0 and the “Plant response rating, Pigweed” value [1, 17] was 90. The “Plant response rating, Pigweed” value [1, 18] was 90, the “Plant response rating, Pigweed” value [1, 19] was 90 and the “Plant response rating, Soybean” value (soybean (Glycine max); [12]) was 0. For the same substance, the “Plant response rating, Soybean” value (soybean (Glycine max); [13]) was 40, the “Plant response rating, Soybean” value (soybean (Glycine max); [14]) was 40 and the “Plant response rating, Soybean” value (soybean (Glycine max); [15]) was 60. The “Plant response rating, Soybean” value (soybean (Glycine max); [16]) was 0, the “Plant response rating, Soybean” value (soybean (Glycine max); [17]) was 0 and the “Plant response rating, Soybean” value (soybean (Glycine max); [18]) was 0. The “Plant response rating, Soybean” value (soybean (Glycine max); [19]) was 0, the “Plant response rating, Johnsongrass” value [2, 12] was 0 and the “Plant response rating, Johnsongrass” value [2, 13] was 80. The “Plant response rating, Johnsongrass” value [2, 16] was 80, the “Plant response rating, Johnsongrass” value [2, 17] was 95 and the “Plant response rating, Johnsongrass” value [2, 18] was 100. For the same substance, the “Plant response rating, Johnsongrass” value [2, 19] was 100, the “Plant response rating, Bromegrass, Downy” value [3, 12] was 5 and the “Plant response rating, Bromegrass, Downy” value [3, 13] was 5. For the same substance, the “Plant response rating, Bromegrass, Downy” value [3, 14] was 5, the “Plant response rating, Bromegrass, Downy” value [3, 15] was 5 and the “Plant response rating, Bromegrass, Downy” value [3, 16] was 50. The “Plant response rating, Bromegrass, Downy” value [3, 17] was 60, the “Plant response rating, Bromegrass, Downy” value [3, 18] was 95 and the “Plant response rating, Bromegrass, Downy” value ([3]; Preemergence, 250 g ai/ha, scale 0 to 100 (0 no effect, 100 complete control)) was 98. The “Plant response rating, Goosegrass” value [4, 12] was 95, the “Plant response rating, Goosegrass” value [4, 13] was 95 and the “Plant response rating, Goosegrass” value [4, 14] was 100. For the same substance, the “Plant response rating, Goosegrass” value [4, 15] was 100, the “Plant response rating, Goosegrass” value [4, 16] was 80 and the “Plant response rating, Goosegrass” value [4, 17] was 85. The “Plant response rating, Goosegrass” value [4, 18] was 85, the “Plant response rating, Goosegrass” value [4, 19] was 100 and the “Plant response rating, Sunflower” value ([5]; 31 g ai/ha, 0 to 100 scale, 0 no effect, 100 complete control) was 30. For the same substance, the “Plant response rating, Sunflower” value ([5]; 62 g ai/ha, scale 0 to 100) was 40, the “Plant response rating, Velvetleaf” value [6, 12] was 0 and the “Plant response rating, Velvetleaf” value [6, 13] was 0. The “Plant response rating, Velvetleaf” value [6, 14] was 0, the “Plant response rating, Velvetleaf” value [6, 15] was 0 and the “Plant response rating, Velvetleaf” value [6, 16] was 0. The “Plant response rating, Velvetleaf” value [6, 17] was 0, the “Plant response rating, Velvetleaf” value [6, 18] was 0 and the “Plant response rating, Velvetleaf” value [6, 19] was 20. The “Bermudagrass plant response rating” value [7, 20] was 100, the “Plant response rating, Bermudagrass” value [7, 12] was 100 and the “Plant response rating, Bermudagrass” value [7, 13] was 100. The “Plant response rating, Bermudagrass” value [7, 14] was 100, the “Plant response rating, Bermudagrass” value [7, 15] was 100 and the “Plant response rating, Bermudagrass” value [7, 16] was 30. For the same substance, the “Plant response rating, Bermudagrass” value [7, 17] was 100, the “Plant response rating, Bermudagrass” value [7, 18] was 100 and the “Blackgrass plant response rating” value [8, 20] was 100. The “Plant response rating, Blackgrass” value [8, 12] was 100, the “Plant response rating, Blackgrass” value [8, 13] was 100 and the “Plant response rating, Blackgrass” value [8, 14] was 100. The “Plant response rating, Blackgrass” value [8, 15] was 100, the “Plant response rating, Blackgrass” value [8, 16] was 80 and the “Plant response rating, Blackgrass” value [8, 17] was 100. The “Plant response rating, Blackgrass” value [8, 18] was 100, the “Plant response rating, Foxtail, Giant” value [9, 12] was 100 and the “Plant response rating, Foxtail, Giant” value [9, 13] was 100. For the same substance, the “Plant response rating, Foxtail, Giant” value [9, 14] was 100, the “Plant response rating, Foxtail, Giant” value [9, 15] was 100 and the “Plant response rating, Foxtail, Giant” value [9, 16] was 98. The “Plant response rating, Foxtail, Giant” value [9, 17] was 98, the “Plant response rating, Foxtail, Giant” value [9, 18] was 100 and the “Plant response rating, Foxtail, Giant” value [9, 19] was 100. The “Plant response rating, Wheat” value [10, 12] was 80, the “Plant response rating, Wheat” value [10, 13] was 90 and the “Plant response rating, Wheat” value [10, 14] was 100. The “Plant response rating, Wheat” value [10, 15] was 100, the “Plant response rating, Wheat” value [10, 16] was 45 and the “Plant response rating, Wheat” value [10, 17] was 75. The “Plant response rating, Wheat” value [10, 18] was 95, the “Plant response rating, Wheat” value [10, 19] was 98 and the “Plant response rating, Foxtail, Giant” value ([11]; Postemergence, 125 g ai/ha, 0 to 100 scale, 0 no effect, 100 complete control) was 100. For the same substance, the “Plant response rating, Foxtail, Giant” value ([11]; Postemergence, 500 g ai/ha, 0 to 100 scale, 0 no effect, 100 complete control) was 100, the “Plant response rating, Foxtail, Giant” value ([11]; Preemergence, 125 g ai/ha, 0 to 100 scale (0 no effect, 100 complete control)) was 100 and the “Plant response rating, Foxtail, Giant” value ([11]; Preemergence, 500 g ai/ha, 0 to 100 scale (0 no effect, 100 complete control)) was 100.
